Values quoted from earlier work, collected in patent publication US9851354B2, “Methods of treating fragile X syndrome and related disorders” (Alcobra Ltd., priority 2013, dated 2017).

Conditions: cited from earlier work
[1] = randomized placebo-controlled trial in autistic children (McCracken 2002)

Cc1nc2n(c(=O)c1CCN1CCC(c3noc4cc(F)ccc34)CC1)CCCC2 [risperidone]
social isolation and communication (autistic children): not improved | adverse events [1]: weight gain, increased appetite, fatigue, drowsiness, dizziness, and drooling | irritability subscale of the Aberrant Behavior Checklist and Clinical Global Impressions-Improvement [1]: significant improvement | adverse side effects associated with use (use in autistic children): extrapyramidal symptoms and dyskinesias
